According to ChEMBL document CHEMBL3351952, “The antimicrobial activity of mono-, bis-, tris-, and tetracationic amphiphiles derived from simple polyamine platforms” (2014):

Legend:
Type in all cases: functional
Enterococcus faecalis = experiment: Antimicrobial activity against Enterococcus faecalis OG1RF after 72 hrs by broth microdilution method
Pseudomonas aeruginosa = experiment: Antimicrobial activity against wild-type Pseudomonas aeruginosa PAO1 after 72 hrs by broth microdilution method; conditions: PAO1, 72 h
Escherichia coli = experiment: Antimicrobial activity against Escherichia coli MC4100 after 72 hrs by broth microdilution method; conditions: MC4100, 72 h
Staphylococcus aureus = experiment: Antimicrobial activity against Staphylococcus aureus SH1000 after 72 hrs by broth microdilution method; conditions: SH1000, 72 h

| SMILES | MIC (Enterococcus faecalis) [µM] | MIC (Pseudomonas aeruginosa) [µM] | MIC (Escherichia coli) [µM] | MIC (Staphylococcus aureus) [µM] |
| --- | --- | --- | --- | --- |
| CCCCCCCCCC[N+](C)(C)CCCCC[N+](C)(C)CCCCCCCCCC | 4 | 63 | 8 | 2 |
| CCCCCCCCCCCCCC[N+](C)(C)CCN(C)CCN(C)CCN(C)C | 16 | 125 | 32 | 16 |
| CCCCCCCCCCCCCCCC[N+](C)(C)CCN(C)CC[N+](C)(C)CCCCCCCCCCCCCCCC | 2 | 32 | 16 | 4 |
| CCCCCCCCCCC[N+](C)(C)CCN(C)CC[N+](C)(C)CCCCCCCCCCC | 2 | 8 | 2 | 2 |
| CCCCCCCCCCCC[N+](C)(C)CCCN(C)CCC[N+](C)(C)CCCCCCCCCCCC | 2 | 4 | 1 | 1 |
| CCCCCCCCCCC[N+](C)(C)CC[N+](C)(C)CC[N+](C)(C)CCCCCCCCCCC | 2 | 8 | 4 | 2 |
| CCCCCCCCCCCC[N+](C)(C)CCN(C)CCN(C)CCN(C)C | 8 | 32 | 8 | 8 |
| C=CC[N+](C)(CC[N+](C)(C)CCCCCCCCCCCCCC)CC[N+](C)(C)CCCCCCCCCCCCCC | 2 | 8 | 2 | 2 |
| CCCCCCCCCCCC[N+](C)(C)Cc1ccccc1 [BENZODODECINIUM CHLORIDE] | 8 | 63 | 32 | 8 |
| CCCCCCCCCCCC[N+](C)(C)CCN(C)CC[N+](C)(C)CCCCCCCCCCCC | 1 | 4 | 2 | 1 |
| C=CC[N+](C)(CC[N+](C)(C)CCCCCCCCCCCCCCCC)CC[N+](C)(C)CCCCCCCCCCCCCCCC | 4 | 16 | 8 | 4 |
| CCCCCCCCCCCC[N+](C)(C)CC[N+](C)(C)CC[N+](C)(C)CCCCCCCCCCCC | ≤ 60.2 | 1 | 0.5 | ≤ 60.2 |
| C=CC[N+](C)(CC[N+](C)(C)CCCCCCCCCCCC)CC[N+](C)(C)CCCCCCCCCCCC | 2 | 4 | 2 | 2 |
| CCCCCCCCCCCCCCCC[N+](C)(C)CCCCC[N+](C)(C)CCCCCCCCCCCCCCCC | 2 | 32 | 16 | 2 |
| CCCCCCCCCC[N+](C)(C)CC[N+](C)(C)CC[N+](C)(C)CCCCCCCCCC | 8 | 63 | 8 | 2 |
| CCCCCCCCCC[N+](C)(C)CCN(C)CC[N+](C)(C)CCCCCCCCCC | 8 | 63 | 8 | 2 |
| C=CC[N+](C)(CC[N+](C)(C)CCCCCCCCCC)CC[N+](C)(C)CCCCCCCCCC | 4 | 63 | 2 | 2 |
| C=CC[N+](C)(CC[N+](C)(C)CCCCCCCCCCC)CC[N+](C)(C)CCCCCCCCCCC | 2 | 16 | 2 | 1 |
| CCCCCCCCCCCC[N+](C)(C)CCC[N+](C)(C)CCC[N+](C)(C)CCCCCCCCCCCC | 2 | 8 | 2 | 1 |

Second part, the molecule after the results:

| MIC (Enterococcus faecalis) [µM] | MIC (Pseudomonas aeruginosa) [µM] | MIC (Escherichia coli) [µM] | MIC (Staphylococcus aureus) [µM] | SMILES |
| --- | --- | --- | --- | --- |
| 1 | 2 | 1 | 1 | CCCCCCCCCCCC[N+](C)(C)CCC[N+](C)(CCC[N+](C)(C)CCCCCCCCCCCC)Cc1ccccc1 |
| 2 | 4 | 2 | 1 | C=CC[N+](C)(CCC[N+](C)(C)CCCCCCCCCCCC)CCC[N+](C)(C)CCCCCCCCCCCC |
| 1 | 4 | 1 | 1 | CCCCCCCCCCCC[N+](C)(C)CCC[N+](C)(CCC[N+](C)(C)CCCCCCCCCCCC)Cc1ccc(CCCCCCCC)cc1 |
| 1 | 2 | 1 | 1 | CCCCCCCCCCCC[N+](C)(C)CCC[N+](C)(CCCC)CCC[N+](C)(C)CCCCCCCCCCCC |
| 1 | 4 | 1 | 0.5 | CCCCCCCCCCCC[N+](C)(C)CCC[N+](C)(CCCCCCCCCCCC)CCC[N+](C)(C)CCCCCCCCCCCC |
| 1 | 8 | 2 | 1 | CCCCCCCCCCCC[N+](C)(C)CCCCCCC[N+](C)(C)CCCCCCCCCCCC |
| 1 | 8 | 2 | 1 | CCCCCCCCCCCCCC[N+](C)(C)CC[N+](C)(C)CC[N+](C)(C)CCCCCCCCCCCCCC |
| 1 | 8 | 2 | 1 | CCCCCCCCCCCCCC[N+](C)(C)CCN(C)CCN(C)CC[N+](C)(C)CCCCCCCCCCCC |
| 1 | 16 | 2 | 2 | CCCCCCCCCCCCCC[N+](C)(C)CCN(C)CCN(C)CC[N+](C)(C)CCCCCCCCCCCCCC |
| 1 | 16 | 4 | 2 | CCCCCCCCCCCCCC[N+](C)(C)CCN(C)CC[N+](C)(C)CCCCCCCCCCCCCC |
| 1 | 4 | 1 | 1 | CCCCCCCCCCCC[N+](C)(C)CCN(C)CCN(C)CC[N+](C)(C)CCCCCCCCCCCC |
| 1 | 2 | 1 | 2 | CCCCCCCCCCCC[N+](C)(C)CCCCC[N+](C)(C)CCCCCCCCCCCC |
| 1 | 16 | 4 | 1 | CCCCCCCCCCCCCC[N+](C)(C)CCCCC[N+](C)(C)CCCCCCCCCCCCCC |
| 1 | 2 | 1 | 1 | C=CC[N+](C)(CC[N+](C)(C)CCCCCCCCCCCC)CC[N+](C)(CC=C)CC[N+](C)(C)CCCCCCCCCCCC (configuration not stated) |
